From patent EP0032564A1, “Pharmaceutical use of caroverine and/or salts of caroverine, as well as salts of caroverine with xanthine acid remainders and nicotinic acid remainder” (MEDICHEMIE AG, priority 1979, dated 1981)
Counter-ions that a name gives are not always drawn.

Assays:
[1] = system: glatten Coronar-Muskulatur; experiment: k-Strophanthin-induced tone of pig coronary smooth muscle; parameters: species or system Schwein; settings: higher concentration of k-Strophanthin, partial restitution by raised extracellular Ca++ (Fig. 15)
From the text: Teilweise Restitution des Coronartonus durch Steigerung der extra-cellulären Ca^++-Konzentration.

Ca^++-Einstrom = experiment: Isolated guinea pig papillary muscle: intracellular action potentials and isometric mechanograms; parameters: species or system Meerschweinchen
From the text: Die Aktionspotentiale […] an ein und derselben Myocardfaser gewonnen. Die einzelnen Konzentrationen kamen jeweils für die Dauer von 40 Minuten zur Anwendung.

[2] = system: K^+-Kontraktur isolierter Coronararterienstreifen; experiment: K+ contracture of isolated pig coronary artery strips; parameters: species or system Schwein
From the text: Partielle Restitution der mechanischen Spannungsentwicklung durch Extra-Calcium.

[3] = system: isolierte, nach Langendorff perfundierte Meerschweinchenherz; experiment: Isolated Langendorff-perfused guinea pig heart: coronary flow, contraction amplitude, heart rate; parameters: species or system Meerschweinchen; settings: for Herzfrequenz: in all experiments; for Coronardurchfluss: single doses Caroverin 1-1000 ug, Theophyllin 10-1000 ug, 1000 Theophyllin about equal to 100 Caroverin
From the text: Meerschweinchen wurden durch Genickschlag getötet, der Thorax eröffnet, der Herzbeutel aufgeschnitten, die Aorta mit einem Faden angeschlungen und in der pars ascendens angeschnitten. Nach Einbinden einer Glaskanüle in die Aorta wurde die aorta pulmonalis eröffnet und anschliessend das Coronargefässsystem durch die Aortenkanüle unter leichten Druck mit einer Spitze durchgespült. Nach Dulchirennung aller anhängenden Gefässe wurde das Herz an der Aortenkanüle in die feuchte Kammer einer modifizierten Langendorff-Apparatur gehängt und mit carbogengesättigter Tyrodelösung von 37^uC mit einem Druck von 55 cm H20 perfundiert. An der Herzspitze wurde eine Serre fine angebracht, die über einen Faden mit einem zweiarmigen Hebel verbunden war, der die Kontraktionsamplitude auf einem Russkymographen aufzeichnete. Alle Herzen waren mit 4 g belastet. Der Schreibhebel passierte bei seinen Ausschlägen die Lichtschranke einer Fotozelle. Dadurch konnte die Herzfrequenz über einen Totalisator (nach FLEISCH, Firma B. Braun, Melsungen) registriert werden. Die aus dem rechten Vorhof frei abfliessende Perfusionslösung tropfte auf einen elektrischen Kontakt. Die Tropfenzahl wurde mittels eines zweiten Totalisators aufgezeichnet,und nach Eichung in ml/min der Coronardurchfluss bestimmt.
Nach Fertigstellung der Präparate wurde bis zum Versuchsbeginn 45 Min. gewartet. Nach dieser Zeit hatten Kontaktionsamplitude, Frequenz und Coronardurchblutung ein konstantes Niveau erreicht.
Caroverin wurde in Einzeldosen von 1, 10, 100 sowie 1000 ug verabreicht. Theophyllin wurde in Dosen von 10, 100 sowie 1000 ug gegeben. In allen Versuchen wurden Caroverin und Theophyllin abwechselnd verabreicht, wobei jeweils eine Zeitspanne von 5 Min. zwischen zwei Einzelinjektionen lag. Alle Injektionsvolumina betrugen 0.1 ml.
Die Effekte der Substanzen wurden ermittelt,indem in jedem Versuch bei jeder Einzeldosis die maximalen Zu- bzw. Abnahmen der entsprechenden Parameter gegenüber dem jeweiligen Ausganswert bestimmt und diese Einzeleffekte gemittelt wurden. Statistische Signifikanzberechnungen erfolgten nach dem t-Test (student's-Test).

[4] = system: Meerschweinchen-Lungenpräparat; experiment: Bronchodilator effect on guinea pig lung preparation (perfusion flow rate); settings: in vitro, 100 µg/ml
Ratten = experiment: Diuretic effect in rats, method of Lipschitz et al. (Na excretion score); format: in vivo; settings: 20 mg/kg p.os, quotient of Na excretion after test substance to Na excretion of control
From the text: Diese Untersuchung an Ratten wurde nach der Methode von Lipschitz et al., j.p.e.t. 79, 97-110, 1954, durchgeführt.
Der errechnete Score entspricht einem Quotienten aus Na-Ausscheidungen nach der Testsubstanz durch Na-Ausscheidung des Kontroll-Leerwertes.
Die Untersuchung an Ratten wurde wie unter 1. durchgeführt. Für den diuretischen Wirkungs-Score gilt gleiches.

Agonisten (Atropin) = experiment: Anticholinergic effect in vitro, guinea pig; parameters: species or system Meerschweinchen; settings: 10 µg/ml
Experimental: In vitro ergab sich am Meerschweinchen mit einer Dosis von 10 µg/ml eine mehr als 80 %ige Hemmung des verwendeten Agonisten (Atropin).

Thrombozytenaggregation [5] = experiment: Collagen-induced platelet aggregation in platelet-rich plasma, turbidimetry; format: cell-based, Kaninchen
From the text: Thrombozytenreiches Plasma wurde aus citriertem Kaninchenblut gewonnen. Die Thrombozytenaggregation wurde durch Collagen aus Rinder- Achillessehnen induziert, worauf der Aggregations-Hemmeffekt durch optische Trübungsmessung (Turbidimetrie) untersucht und quantifiziert werden konnte.
Bei diesen Diagrammen handelt es sich um Aufnahmen des zeitlichen Verlaufes einer optischen Messgrösse als Mass eines durch das Präparat tretenden Lichtanteils, entsprechend einem reziproken Mass für den Agglutinations- oder Aggregationsgrad. Die verschiedenen Messkurven für je eine Wirksubstanz entsprechen unter- schiedlichen molaren Konzentrationen in Mikromol des Wirkstoffes als Parameter. Die erste Messkurve in Fig. 1 entspricht einem Kontroll-Leerversuch.

Maus = experiment: Acute toxicity in the mouse (new caroverine salts); format: in vivo; settings: for Akute Toxizität, observation: in vivo; for Letale Dosis: mouse, i.p.
Experimental: Letale Dosis: • 200 mg/kg i.p..

[6] = system: Patienten mit Arrhythmia absoluta
Experimental: Bei insgesamt 6 Patienten (5♀, 1 ♂) mit Arrhythmia absoluta wurden innerhalb 3 - 5 Min. 200 mg Caroverinfumarat i.v. verabreicht. […] Mittleres Alter der Probanden war 65 (+6/-11) Jahre. Registriert wurden EKG (Frequenz) und Blutdruck (Riva-Rocci) bis max. 13 Minuten nach Injektionsbeginn. Die Min.-Frequenz ermittelte sich aus 10 aufeinanderfolgenden QRS-Komplexen.

Herzfrequenz = experiment: Clinical study: heart rate under stepwise i.v. dosing, treatment groups A, B, C; format: in vivo, Menschen
From the text: • a) Anzahl: je 6 Patienten der Gruppen A, B und C. Die Probandenzahl der Gruppe D hängt davon ab […] hoc finden. • b) Die […] des Prüfers. • c) Kontraindikationen […], die nicht für eine klinische Studie mit Ca-Antagonisten geeignet sind, oder unter […] leiden, die die Resultate […]. Die […] 10 und 5' vor Beginn der Medikation. […] Nach Beendigung der Medikation, Nachkontrolle in 10-[…] bis ca. 4 Stunden nach Beginn der Medikation. Abbruch der Medikation bei: • 1) AV-Block 1. […] In einem ersten Schritt wurden die Zeitreihen (Herzfrequenz-Mittelwerte und Streuungen) je Behandlungsgruppe einzeln berechnet und graphisch dargestellt (s. Abbildung und […], die […] auch […] und der 3 Stunden Nachbeobachtung unterscheiden. Es ist ebenfalls festzuhalten, dass die Werte zu Beginn der Applikation gegenüber den Vorwerten durchwegs erhöht sind. Um die Herzfrequenz-Verläufe […] zu […] Differenzen der Mittelwerte zu jedem […] zu den Vorwerten als auch zum Wert bei […] und […] - unter […] und […] - auf Signifikanz geprüft.

Thrombozytenaggregation [7] = experiment: Collagen-induced platelet aggregation, same method on human blood preparations; format: cell-based, menschlichem Blut; settings: same method as with rabbit plasma
[8] = system: anemische Decerebrationsstarre; experiment: Inhibition of anemic decerebrate rigidity in rats, method of Fukuda et al.; format: in vivo, Wister-Ratten; settings: male rats, i.v.; for ED50: Rattus norvegicus, iv, read-out: Dosis für 50%ige Inhibierung; for ED50 / Zeit für 50%ige Erholung: anemic decerebrate rigidity
From the text: Die Untersuchungen wurden ausgeführt nach der Methode von Fukuda et al. (Japanese Journal of Pharmacology, Band 24, Seiten 810 - 813, 1974).
Es wurden männliche Wister-Ratten mit einem Köpergewicht von 280 - 380 g verwendet. Die Tiere wurden mit Aether betäubt und am Rücken befestigt. Nach Freilegen der Luft- und Speiseröhre sowie der beiderseitigen, gemeinsamen Carotisarterien wurde die Luftröhre kanüliert und die Speiseröhre abgetrennt. Das Hinterhauptbein wurde durch Abschaben der anhängenden Muskulatur freigelegt. Nach beidseitigem Abbinden der gemeinsamen Carotisarterien wurde im mittleren Teil des Hinterhauptbeines eine Oeffnung von 5 mm Durchmesser trepaniert, um die Basilararterie sichtbar zu machen. Die dura mater wurde längs der Basilararterie durchschnitten und letztere mit einem Coagulator ausgeätzt. Unmittelbar nach Beendigung dieser Massnahmen wurde die Anästhesie unterbrochen. Innerhalb von 30-min entwickelte sich Starre, und es trat eine deutliche Streckung der Extremitäten, des Nackens und des Schwanzes ein. Die Streckung der Vordergliedmassen wurde mit einem Dehnungsmessstreifen erfasst. 50 min nach Erholung von der Betäubung wurden in Salzlösung aufgelöste Pharmaka durch eine in die Oberschenkelvene eingeführte Kanüle intravenös zugeführt. Die verwendeten Pharmaka waren Caroverinfumarat und Referenz-Agenzien, nämlich Mephenesin und Tolperison-Hydrochlorid. Das Ergebnis nach Zuführung von 2 mg/kg Caroverinfumarat sind in der nachstehend eingefügten Tabelle wiedergegeben.

[9] = Acute toxicity (LD50) in male mice; settings: mouse, in vivo
From the text: Untersuchung der akuten Toxizität an männlichen Mäusen
Es wurden folgende Standard-Grenzwerte LDSO (mg/kg) ermittelt:
Toxizitätsuntersuchung an männlichen Mäusen

Hunden = experiment: Coronary sinus outflow, systemic blood pressure and heart rate in dogs; format: in vivo; settings: dogs, 0,03-3,0 mg/kg, effect increases with dose (Fig. 4-6)
Experimental: Es wurde der coronare Sinus-Ausfluss(CSF), der System-Blutdruck (SEP) und die Herzfrequenz (HR) an Hunden untersucht. Für den coronaren Sinus-Ausfluss wurde die in Clin. Pharmacol. Physiol., 5, 107 - 115, 1978, Australien,beschriebene Untersuchungsmethode angewendet.
Zeitdiagramme der genannten Messgrössen SBP (mmHg), CSF (ml/min) und HR (min ) wurde für […] verschiedene Dosierungen von Caroverinfumarat, nämlich 0,03, 0,1, 0,3, 1,0 und 3,0 mg/kg (bezogen auf das Körpergewicht) aufgenommen. Die Diagramme für die drei erstgenannten Dosierungswerte sind in Fig. 4 und diejenigen für die beiden letztgenannten Dosierungswerte in Fig. 5 bzw. Fig. 6 wiedergegeben. Der Zuführungszeitpunkt der Wirksubstanz ist in den Diagrammen gemäss Fig. 4 durch das Zeichen "o" markiert, während in den Diagrammen gemäss Fig. 5 und 6 das Zuführungsintervall jeweils durch einen Horizontalstrich unterhalb der CSF-Messkurve angegeben ist.

[10] = group B, ca. 70 min after start of application
[11] = group C, 2 1/2 to 3 h after start of application

CCN(CC)CCn1c(=O)c(Cc2ccc(OC)cc2)nc2ccccc21 [Caroverin, 1-(2-diäthylaminoäthyl)-3-(p-methoxybenzyl)-1,2-dihydroquinoxalon-2]
tonussteigernde Effekte von k-Strophanthin [1]: Neutralisation der tonussteigernden Effekte | elektrische Parameter Ca^++-getragener Aktionspotentiale (AP-Amplitude, max. Aufstrichsteilheit, AP-Dauer) und zugehörige Mechanogramme (Ca^++-Einstrom; about the same concentration range (10 mg/l)): hemmt | Blockade des Ca^++-Einstroms während der Erregung (Ca^++-Einstrom; electrically stimulated isolated guinea pig papillary muscle, 10 mg Caroverin/l (Fig. 12)): ~50% | transmembranäre Na- und K^+-Fluxe (Ca^++-Einstrom; isolated guinea pig papillary muscle, 10 mg Caroverin/l): ohne die transmembranären Na - und K^+-Fluxe zu reduzieren | inhibition at 0.25 µg/mL ([2]; Sus scrofa, pig, 0,25 mg Caroverin/l (Fig. 13 and 14), read-out: elektromechanische Entkoppelung K^+-depolarisierter Coronararterienstreifen): ~50% | K^+-Kontraktur isolierter Coronararterienstreifen ([2]; pig, rising concentrations 0,05, 0,1 and 0,5 mg/l, partial restitution by extra calcium (Fig. 13)): Hemmungen der K^+-Kontraktur | K^+-Kontraktur isolierter Coronararterien-Streifen ([2]; pig, rising concentrations 1,0, 2,0 and 5,0 mg/l, partial restitution by extra calcium at 1 mg/l (Fig. 14)): Hemmung der K^+-Kontraktur | Herzfrequenz ([3]; 100 µg): langanhaltenden frequenzsenkenden Effekt | Kontraktionsamplitude ([3]; 100 µg, p < 0.01): verminderte die Kontraktionsamplitude signifikant | Coronardurchfluss [3]: dosisabhängige, coronardurchflusssteigernde Wirkung

CCN(CC)CCn1c(=O)c(Cc2ccc(OC)cc2)nc2ccccc21 [Caroverin-Nicotinat]
Perfusions-Fliessrate [4]: eindeutige Zunahme der Perfusions-Fliessrate | diuretischer Wirkungs-Score (Ratten; 20 mg/kg): 2.6 | Hemmung des verwendeten Agonisten (Atropin) (Agonisten (Atropin)): > 80% | inhibition at 10 µg/mL (Thrombozytenaggregation [5]; Oryctolagus cuniculus, Platelet, in vitro, rabbit, 10 mcg/ml, read-out: Hemmung der collagen-induzierten Plättchenaggregation): 100% | Akute Toxizität, observation (Maus; 300 mg/kg): keine Auffälligkeiten | Akute Toxizität, observation (Maus; ip, 100 mg/kg): Abnahme des Muskeltonus in den Extremitäten, sowie eine leichte Abnahme des Haltegriffes | Letale Dosis (Maus): 200 mg/kg

CCN(CC)CCn1c(=O)c(Cc2ccc(OC)cc2)nc2ccccc21 [Caroverin-Theophyllinat]
Perfusions-Fliessrate [4]: eindeutige Zunahme der Perfusions-Fliessrate | diuretischer Wirkungs-Score (Ratten; 20 mg/kg): 2.8 | Hemmung des verwendeten Agonisten (Atropin) (Agonisten (Atropin)): > 80% | Akute Toxizität, observation (Maus; 300 mg/kg): keine Auffälligkeiten | Akute Toxizität, observation (Maus; ip, 100 mg/kg): leichte Muskelrelaxation | Letale Dosis (Maus): 200 mg/kg

CCN(CC)CCn1c(=O)c(Cc2ccc(OC)cc2)nc2ccccc21 [Caroverinfumarat]
Vorhofflimmer-Frequenz ([6]; 6 patients, 200 mg i.v.): ohne messbare Veränderung | rhythmisierender Effekt ([6]; 6 patients, 200 mg i.v.): nicht nachgewiesen | maximale systolische Blutdruckabfall ([6]; 6 patients, 200 mg i.v. within 3-5 min): 29,3 (+ 8,2/-9,3) % | diastolische Blutdruckabfall ([6]; mean of 6 patients, 200 mg i.v. within 3-5 min): 26,6 (+ 10,9/-11,6) % | maximale Frequenz-Abfall im Vergleich zum Ausgangswert ([6]; mean of 6 patients, 200 mg i.v. within 3-5 min, up to 13 min after start of injection): 26,6 (+ 7,2/-4,7) % | mittlere Herzfrequenz, % of value before application (Herzfrequenz; group A (heart-healthy), end of application after 40 min): 86% | mittlere Herzfrequenz (Herzfrequenz; group A (heart-healthy), end of application after 40 min, 20 mg i.v. then 10 mg every 4 min up to 120 mg, baseline 72/Min.): 62 min⁻¹ | mittlere Herzfrequenz, % of value before application (Herzfrequenz; group A, 2 h after start of application): 79% | mittlere Herzfrequenz (Herzfrequenz; group A, 2 h after start of application, lasting to end of 4 h observation): 57 min⁻¹ | mittlere Herzfrequenz, % of value before application (Herzfrequenz; group B (coronary heart disease), end of application): 90% | mittlere Herzfrequenz (Herzfrequenz; group B (coronary heart disease), end of application, baseline 77/Min.): 69 min⁻¹ | mittlere Herzfrequenz (Herzfrequenz; [10]): 65 min⁻¹ | mittlere Herzfrequenz, % of value before application (Herzfrequenz; [10]): 84% | mittlere Herzfrequenz, % of value before application (Herzfrequenz; group C (diseased conduction system), end of application): 86% | mittlere Herzfrequenz (Herzfrequenz; group C (diseased conduction system), end of application, baseline 66/Min.): 57 min⁻¹ | mittlere Herzfrequenz (Herzfrequenz; [11]): 54 min⁻¹ | mittlere Herzfrequenz, % of value before application (Herzfrequenz; [11]): 82% | Aggregations-Hemmeffekt (Thrombozytenaggregation [5]; rabbit platelet-rich plasma, collagen from bovine Achilles tendon, several micromolar concentrations (Fig. 1-3), intensity between Benzyclanfumarat and Aspirin): eindeutigen Hemmungseffekt | Aggregations-Hemmeffekt (Thrombozytenaggregation [7]): Aehnliche Ergebnisse | ED50 [8]: 1.5 mg/kg | Zeit für 50%ige Erholung [8]: > 30 min | anemische Decerebrationsstarre ([8]; stronger and longer lasting than Tolperison-Hydrochlorid and Mephenesin): unverzüglich aufgehoben | LD50 ([9]; intravenous): 39 mg/kg | LD50 ([9]; ip, intraperitoneal): 138 mg/kg | LD50 ([9]; oral): 800 mg/kg | Herzfrequenz (HR) (Hunden): Herabsetzung der Herzfrequenz | System-Blutdruck (SBP) (Hunden): Herabsetzung des System-Blutdrucks | coronarer Sinus-Ausfluss (CSF) (Hunden): Rasch zunehmende und langsam abklingende Zunahme des coronaren Sinus-Ausflusses

Cc1ccccc1OCC(O)CO (centres unmarked) [Mephenesin]
ED50 [8]: 25 mg/kg | Zeit für 50%ige Erholung [8]: ca 13 min.

CC(=O)S[C@@H]1CC2=CC(=O)CC[C@]2(C)[C@H]2CC[C@@]3(C)[C@@H](CC[C@@]34CCC(=O)O4)[C@H]12 [Spironolacton, reference compound]
diuretischer Wirkungs-Score (Ratten): 3.6

Cn1c(=O)c2[nH]cnc2n(C)c1=O [Theophyllin, reference compound]
Herzfrequenz ([3]; 1000pg as printed): die Herzfrequenz vorübergehend steigerte | Kontraktionsamplitude ([3]; doses used (10, 100, 1000 ug)): keine signifikanten Aenderungen der Kontraktionsamplitude | Coronardurchfluss [3]: steigernde Wirkung auf den Coronardurchfluss

Cc1ccc(C(=O)C(C)CN2CCCCC2)cc1 (centres unmarked) [Tolperison-Hydrochlorid]
ED50 [8]: 4 mg/kg | Zeit für 50%ige Erholung [8]: ca. 10 min.
